From patent publication US6624176B2, “Heteroaromatic substituted amides with antagonistic activity to neurokinin 1 receptors” (Hoffmann-La Roche Inc., priority 2001, dated 2003)

Columns and labels:
[1] = biological target: T1, human NK1 receptor (Homo sapiens, UniProt P25103); assay: NK1 receptor binding assay, [3H]substance P displacement; details: affinity to the NK-1 receptor; human NK1 receptors in CHO cells; [3H]substance P 0.6 nM
T1 construct: expressed in transfected cells; host or cells: CHO cells infected using the Semliki virus expression system; membrane suspension
T1 sequence (P25103 whole entry): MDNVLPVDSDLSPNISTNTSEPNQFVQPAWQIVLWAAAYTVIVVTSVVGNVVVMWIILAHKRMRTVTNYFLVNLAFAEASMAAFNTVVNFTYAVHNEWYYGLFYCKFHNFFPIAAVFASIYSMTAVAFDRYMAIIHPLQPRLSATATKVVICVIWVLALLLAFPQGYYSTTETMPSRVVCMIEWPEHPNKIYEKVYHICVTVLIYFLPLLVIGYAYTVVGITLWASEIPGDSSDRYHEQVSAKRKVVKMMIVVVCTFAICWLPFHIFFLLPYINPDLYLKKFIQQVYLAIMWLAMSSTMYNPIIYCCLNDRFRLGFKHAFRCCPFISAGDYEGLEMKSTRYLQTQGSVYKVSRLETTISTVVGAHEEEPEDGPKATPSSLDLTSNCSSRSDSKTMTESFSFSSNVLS
Protocol: The affinity of test compounds for the NK1 receptor was evaluated at human NK1 receptors in CHO cells infected with the human NK1 receptor (using the Semliki virus expression system) and radiolabelled with [^3H]substance P (final concentration 0.6 nM). Binding assays were performed in HEPES buffer (50 mM, pH 7.4) containing BSA (0.04%) leupeptin (8 μg/ml), MnCI2 (3 mM) and phosphoramidon (2 μM). Binding assays consisted of 250 μl of membrane suspension (1.25×10^5 cells/assay tube), […] of buffer of displacing agent and 125 μl of [^3H]substance P. Displacement curves were determined with at least seven concentrations of the compound. The assay tubes were incubated for 60 min at room temperature after which time the tube contents were rapidly filtered under vacuum through GF/C filters presoaked for 60 min with PEI (0.3%) with 2×2 ml washes of HEPES buffer (50 mM, pH 7.4). The radioactivity retained on the filters was measured by scintillation counting. All assays were performed in triplicate in at least 2 separate experiments.

## Cc1ccccc1-c1cc(-n2cncn2)ncc1C(=O)N(C)Cc1cc(C(F)(F)F)cc(C(F)(F)F)c1 [Example 1, N-(3,5-Bis-trifluoromethyl-benzyl)-N-methyl-4-o-tolyl-6-[1,2,4]triazol-1-yl-nicotinamide]
[1]
  Ki: 3.98 nM
other
  melting point: 91 to 93 °C

## Cc1ccccc1-c1cc(NCCO)ncc1C(=O)N(C)Cc1cc(C(F)(F)F)cc(C(F)(F)F)c1 [Example 2, N-(3,5-Bis-trifluoromethyl-benzyl)-6-(2-hydroxy-ethylamino)-N-methyl-4-o-tolyl-nicotinamide]
[1]
  Ki: 1.35 nM

## Cc1ccccc1-c1cc(N2CCC(O)CC2)ncc1C(=O)N(C)Cc1cc(C(F)(F)F)cc(C(F)(F)F)c1 [Example 3, 4-Hydroxy-4′-o-tolyl-3,4,5,6-tetrahydro-2H-[1,2′]bipyridinyl-5′-carboxylic acid (3,5-bis-trifluoromethyl-benzyl)-methyl-amide]
[1]
  Ki: 1.23 nM
other
  melting point: 150 to 152 °C

## Cc1ccccc1-c1cc(N2CCC(OCCO)CC2)ncc1C(=O)N(C)Cc1cc(C(F)(F)F)cc(C(F)(F)F)c1 [Example 4, 4-(2-Hydroxy-ethoxy)-4′-o-tolyl-3,4,5,6-tetrahydro-2H-[1,2′]bipyridinyl-5′-carboxylic acid (3,5-bis-trifluoromethyl-benzyl)-methyl-amide]
[1]
  Ki: 0.933 nM

## Cc1ccccc1-c1cc(N2CC[C@@H](O)C2)ncc1C(=O)N(C)Cc1cc(C(F)(F)F)cc(C(F)(F)F)c1 [Example 5, (R)-N-(3,5-Bis-trifluoromethyl-benzyl)-6-(3-hydroxy-pyrrolidin-1-yl)-N -methyl-4-o-tolyl-nicotinamide]
[1]
  Ki: 0.575 nM

## CN(Cc1cc(C(F)(F)F)cc(C(F)(F)F)c1)C(=O)c1cnc(N2CCC(O)CC2)cc1-c1ccccc1Cl [Example 6, 4′-(2-Chloro-phenyl)-4-hydroxy-3,4,5,6-tetrahydro-2H-[1,2′]bipyridinyl-5′-carboxylic acid (3,5-bis-trifluoromethyl-benzyl)-methyl-amide]
[1]
  Ki: 0.661 nM

## Cc1ccccc1-c1cc(NCCO)ncc1N(C)C(=O)C(C)(C)c1cc(C(F)(F)F)cc(C(F)(F)F)c1 [Example 7, 2-(3,5-Bis-trifluoromethyl-phenyl)-N-[6-(2-hydroxy-ethylamino)-4-o-toyl-pyridin-3-yl]-N-methyl-isobutyramide]
[1]
  Ki: 0.692 nM

## CN(C(=O)C(C)(C)c1cc(C(F)(F)F)cc(C(F)(F)F)c1)c1cnc(NCCO)cc1-c1ccccc1Cl [Example 8, 2-(3,5-Bis-trifluofomethyl-phenyl)-N-[4-(2-chloro-phenyl)-6-(2-hydroxy-ethylamino)-pyridin-3-yl]-N-methyl-isobutyramide]
[1]
  Ki: 0.724 nM

## Cc1ccccc1-c1cc(N2C=COCC2)ncc1N(C)C(=O)C(C)(C)c1cc(C(F)(F)F)cc(C(F)(F)F)c1 [Example 9, 2-(3,5-Bis-trifluoromethyl-phenyl)-N-[6-(2,3-dihydro-[1,4]oxazin-4-yl)-4-o-tolyl-pyridin-3-yl]-N-methyl-isobutyramide]
[1]
  Ki: 1.48 nM

## CC(=O)Nc1cc(-c2ccccc2C)c(N(C)C(=O)C(C)(C)c2cc(C(F)(F)F)cc(C(F)(F)F)c2)cn1 [Example 10, N-(6-Acetylamino-4-o-tolyl-pyridin-3-yl)-2-(3,5-bis-trifluoromethyl-phenyl)-N-methyl-isobutyramide]
[1]
  Ki: 2.51 nM

## CC(=O)N(C)c1cc(-c2ccccc2C)c(N(C)C(=O)C(C)(C)c2cc(C(F)(F)F)cc(C(F)(F)F)c2)cn1 [Example 11, N-[6-(Acetyl-methyl-amino)-4-o-tolyl-pyridin-3-yl]-2-(3,5-bis-trifluoromethyl-phenyl)-N-methyl-isobutyramide]
[1]
  Ki: 1.95 nM

## Cc1ccccc1-c1cc(NC(=O)C2CC2)ncc1N(C)C(=O)C(C)(C)c1cc(C(F)(F)F)cc(C(F)(F)F)c1 [Example 12, Cyclopropanecarboxylic acid (5-{[2-(3,5-bis-trifluoromethyl-phenyl)-2-methyl-propionyl]-methyl-amino}-4-o-tolyl-pyridin-2-yl)-amide]
[1]
  Ki: 2.24 nM

## Cc1ccccc1-c1cc(N(C)C(=O)C2CC2)ncc1N(C)C(=O)C(C)(C)c1cc(C(F)(F)F)cc(C(F)(F)F)c1 [Example 13, Cyclopropanecarboxylic acid (5-{[2-(3,5-bis-trifluoromethyl-phenyl)-2-methyl-propionyl]-methyl-amino}-4-o-tolyl-pyridin-2-yl)-methyl-amide]
[1]
  Ki: 1.35 nM

## Cc1ccccc1-c1cc(-n2ccnc2)ncc1N(C)C(=O)C(C)(C)c1cc(C(F)(F)F)cc(C(F)(F)F)c1 [Example 14, 2-(3,5-Bis-trifluoromethyl-phenyl)-N-(6-imidazol-1-yl-4-o-tolyl-pyridin-3-yl)-N-methyl-isobutyramide]
[1]
  Ki: 2.24 nM
